This passage reports bioavailability, AUC(0-t) and IC50 results from patent US20250171417A1, “HETEROCYCLIC DERIVATIVE, AND COMPOSITION AND PHARMACEUTICAL USE THEREOF” (Xizang Haisco Pharmaceutical Co., Ltd., priority 2021, published 2025).

SMILES strings stand for the structures. Read-outs that look alike come from different tables or passages of the source.

Series [1] can be described thus: Pharmacokinetic test in rats. Conditions: rat, plasma, po, male SD rats; for bioavailability: i.g. 5 mg/kg vs intravenous 2 mg/kg; for AUC(0-t): i.g. 5 mg/kg. In kind it is in vivo. As to the method:
Test objective: In this experiment, a single dose of each test compound was administered to SD rats intravenously and intragastrically, and the concentrations of the test compounds in plasma of rats were measured to evaluate the pharmacokinetic characteristics of the test compounds in rats.
Experimental animals: male SD rats, 200-250 g, 6-8 weeks old, 6 rats/compound, purchased from Chengdu Ddossy Experimental Animals Co., Ltd.
Experimental method: on the day of the test, 6 SD rats were randomly grouped according to their body weight; the animals were fasted with water available for 12 to 14 hours one day before the administration of a test compound, and were fed 4 hours after the administration.
Sampling: Before and after the administration, 0.1 mL of blood samples were drawn from the orbits of the animals under isoflurane anesthesia, and placed in an EDTAK2 centrifuge tube. Centrifugation was carried out at 5000 rpm at 4° C. for 10 min, and the plasma was collected.
Time points for plasma collection in IV&PO group: 0, 5 min, 15 min, 30 min, 1 h, 2 h, 4 h, 6 h, 8 h, and 24 h.
Before analysis and detection, all samples were stored at −60° C. The samples were analyzed quantitatively by LC-MS/MS.

Series [2] relates to Prostate cancer cells 22RV1. Put plainly: Experiment on inhibiting 22RV1 cell proliferation (CellTiter-Glo, 7 days). It is filed as cell-based. The following applies: Homo sapiens, 168 h, 22RV1 cells, 7 days incubation, read-out: IC50 values for inhibition of 22RVI cells. An outline of the steps:
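22RV1 cells at 2000/well in 1% charcoal-stripped-FBS phenol red-free medium, treated next day with compound for 7 days at 37 °C, 5% CO2. Viability by CellTiter-Glo luminescence; inhibition relative to DMSO vehicle, IC50 from dose-response fit.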
On the technique in general: In ATP-based viability assays light output follows the ATP content of the culture.

The mark [3] stands for this setting: cells with nM printed beside the value.
Setting [4] is: cells without a unit of their own (μM).

By AUC(0-t) is commonly meant exposure summed from dosing to a finite time, without extrapolation to infinity. The IC50 is the point on the concentration scale where inhibition reaches its midpoint. For `CC(C)(C(=O)Nc1ccc(C#N)c2c1CCC2)n1cc(C#CC2CN(c3ccc4c(c3)C(=O)N(C3CCC(=O)NC3=O)C4=O)C2)cn1` (centres unmarked) [Compound 141, N-(7-cyano-2,3-dihydro-1H-inden-4-yl)-2-(4-((1-(2-(2,6-dioxopiperidin-3-yl)-1,3-dioxoisoindolin-5-yl)azetidin-3-yl)ethynyl)-1H-pyrazol-1-yl)-2-methylpropanamide], in series [1], the bioavailability is 76.1 ± 716% and the area under the curve AUC(0-t) amounted to 15700 ± 3200 ng·h/mL. For the same compound, in series [2] (setting [3]), the IC50 was less than 50 nM.

On to `O=C1CCC(N2C(=O)c3cc(F)c(N4CC(C#Cc5cnn(C6(C(=O)Nc7ccc(C(F)(F)F)cc7Cl)CCC6)c5)C4)cc3C2=O)C(=O)N1` (centres unmarked) [Compound 33], for which, in series [1], the bioavailability was 55.3 ± 5.4% and the area under the curve AUC(0-t) is 9390 ± 916 ng·h/mL. For the same compound, the IC50 in series [2] (setting [4]) was less than 1000 nM.

Turning to `CC(C)(C(=O)Nc1ccc(C#N)c(Cl)c1)n1cc(C#CC2CN(c3ccc4c(c3)C(=O)N(C3CCC(=O)NC3=O)C4=O)C2)cn1` (centres unmarked) [Compound 12, N-(3-chloro-4-cyanophenyl)-2-(4-((1-(2-(2,6-dioxopiperidin-3-yl)-1,3-dioxoisoindolin-5-yl)azetidin-3-yl)ethynyl)-1H-pyrazol-1-yl)-2-methylpropanamide], in series [1], the bioavailability worked out at 73 ± 7.2% and the area under the curve AUC(0-t) came out at 70500 ± 6980 ng·h/mL. Also, the IC50 in series [2] (setting [3]) was less than 50 nM.

For the compound `CC(C)(C(=O)Nc1ccc(C#N)c(C(F)(F)F)c1)n1cc(C#CC2CN(c3ccc4c(c3)CN(C3CCC(=O)NC3=O)C4=O)C2)cn1` (centres unmarked) [Compound 6], in series [1], the bioavailability stood at 47.3 ± 16% and the area under the curve AUC(0-t) stood at 8960 ± 2940 ng·h/mL. Besides, the half-maximal inhibitory concentration (IC50) in series [2] (setting [4]) was less than 1000 nM.

Consider `CC(C)(C(=O)Nc1ccc(C#N)c(Br)c1)n1cc(C#CC2CN(c3ccc4c(c3)C(=O)N(C3CCC(=O)NC3=O)C4=O)C2)cn1` (centres unmarked) [Compound 37, N-(3-bromo-4-cyanophenyl)-2-(4-((1-(2-(2,6-dioxopiperidin-3-yl)-1,3-dioxoisoindolin-5-yl)azetidin-3-yl)ethynyl)-1H-pyrazol-1-yl)-2-methylpropanamide], for which, in series [1], the bioavailability was 69.8 ± 28% and the exposure AUC(0-t) is 55800 ± 22600 ng·h/mL. For the same compound, in series [2] (setting [3]), the concentration for half-maximal inhibition (IC50) was less than 50 nM.

As to `CC(C)(C(=O)Nc1ccc(C(F)(F)F)cc1F)n1cc(C#CC2CN(c3ccc4c(c3)C(=O)N(C3CCC(=O)NC3=O)C4=O)C2)cn1` (centres unmarked) [Compound 31, N-(2-fluoro-4-(trifluoromethyl)phenyl)-2-(4-((1-(2-(2,6-dioxopiperidin-3-yl)-1,3-dioxoisoindolin-5-yl)azetidin-3-yl)ethynyl)-1H-pyrazol-1-yl)-2-methylpropanamide], the AUC(0-t) in series [1] was 39700 ± 1890 ng·h/mL. Also, in series [2] (setting [3]), the IC50 was less than 100 nM.

Regarding `CC(C)(C(=O)Nc1ccc(C#N)c(N2CCCC2)c1)n1cc(C#CC2CN(c3ccc4c(c3)C(=O)N(C3CCC(=O)NC3=O)C4=O)C2)cn1` (centres unmarked) [Compound 38, N-(4-cyano-3-(pyrrolidin-1-yl)phenyl)-2-(4-((1-(2-(2,6-dioxopiperidin-3-yl)-1,3-dioxoisoindolin-5-yl)azetidin-3-yl)ethynyl)-1H-pyrazol-1-yl)-2-methylpropanamide], in series [1], the bioavailability worked out at 43.5 ± 7.3% and the AUC(0-t) was determined as 7200 ± 1210 ng·h/mL. For the same compound, the IC50 in series [2] (setting [3]) was less than 50 nM.

`N#Cc1ccc(NC(=O)Cn2cc(C#CC3CN(c4ccc5c(c4)C(=O)N(C4CCC(=O)NC4=O)C5=O)C3)cn2)cc1C(F)(F)F` (centres unmarked) [Compound 47, N-(4-cyano-3-(trifluoromethyl)phenyl)-2-(4-((1-(2-(2,6-dioxopiperidin-3-yl)-1,3-dioxoisoindolin-S-yl)azetidin-3-yl)ethynyl)-1H-pyrazol-1-yl) acetamide]: in series [1], the bioavailability came to 37.7 ± 13% and the AUC(0-t) stood at 11300 ± 3880 ng·h/mL. Further, the IC50 in series [2] (setting [3]) is less than 50 nM.

On to `Cc1c(C#CC2CN(c3ccc4c(c3)C(=O)N(C3CCC(=O)NC3=O)C4=O)C2)cnn1C1(C(=O)Nc2ccc(C(F)(F)F)cc2Cl)CCC1` (centres unmarked) [Compound 163, N-(2-chloro-4-(trifluoromethyl)phenyl)-1-(4-((1-(2-(2,6-dioxopiperidin-3-yl)-1,3-dioxoisoindolin-5-yl)azetidin-3-yl)ethynyl)-5-methyl-1H-pyrazol-1-yl)cyclobutane-1-carboxamide], for which the IC50 in series [2] (setting [3]) is less than 50 nM.

Turning to `CC(C)(C(=O)Nc1ccc([N+](=O)[O-])c(C(F)(F)F)c1)n1cc(C#CC2CN(c3ccc4c(c3)C(=O)N(C3CCC(=O)NC3=O)C4=O)C2)cn1` (centres unmarked) [Compound 26, 2-(4-((1-(2-(2,6-dioxopiperidin-3-yl)-1,3-dioxoisoindolin-5-yl)azetidin-3-yl)ethynyl)-1H-pyrazol-1-yl)-2-methyl-N-(4-nitro-3-(trifluoromethyl)phenyl)propanamide], the IC50 in series [2] (setting [4]) was less than 1000 nM.

`CC(C)(C(=O)Nc1ccc(C#N)cc1Cl)n1cc(C#CC2CN(c3ccc4c(c3)C(=O)N(C3CCC(=O)NC3=O)C4=O)C2)cn1` (centres unmarked) [Compound 20, N-(2-chloro-4-cyanophenyl)-2-(4-((1-(2-(2,6-dioxopiperidin-3-yl)-1,3-dioxoisoindolin-5-yl)azetidin-3-yl)ethynyl)-1H-pyrazol-1-yl)-2-methylpropanamide]: in series [1], the bioavailability came to 62 ± 23% and the area under the curve AUC(0-t) worked out at 16000 ± 5820 ng·h/mL. In series [2] (setting [3]), the half-inhibitory concentration (IC50) is less than 50 nM.

Turning to `[2H]C([2H])([2H])C(C(=O)Nc1ccc(C#N)cc1C1CC1)(n1cc(C#CC2CN(c3ccc4c(c3)C(=O)N(C3CCC(=O)NC3=O)C4=O)C2)cn1)C([2H])([2H])[2H]` (centres unmarked) [Compound 186, N-(4-cyano-2-cyclopropylphenyl)-2-(4-((1-(2-(2,6-dioxopiperidin-3-yl)-1,3-dioxoisoindolin-S-yl)azetidin-3-yl)ethynyl)-1H-pyrazol-1-yl)-2,2-(dimethyl-d6) acetamide], the IC50 in series [2] (setting [3]) is less than 100 nM.

`O=C1CCC(N2C(=O)c3ccc(N4CC(F)(C#Cc5cnn(C6(C(=O)Nc7ccc(C(F)(F)F)cc7Cl)CCC6)c5)C4)cc3C2=O)C(=O)N1` (centres unmarked) [Compound 71]: the IC50 in series [2] (setting [3]) is less than 50 nM.

In the case of `CC(C)(C(=O)Nc1ccc(C(F)(F)F)cc1-n1cccc1)n1cc(C#CC2CN(c3ccc4c(c3)C(=O)N(C3CCC(=O)NC3=O)C4=O)C2)cn1` (centres unmarked) [Compound 133, N-(2-(1H-pyrrol-1-yl)-4-(trifluoromethyl)phenyl)-2-(4-((1-(2-(2,6-dioxopiperidin-3-yl)-1,3-dioxoisoindolin-5-yl)azetidin-3-yl)ethynyl)-1H-pyrazol-1-yl)-2-methylpropanamide], in series [1], the bioavailability was 70.3 ± 7.9% and the exposure AUC(0-t) stood at 8290 ± 935 ng·h/mL. For the same compound, in series [2] (setting [3]), the IC50 is less than 100 nM.

`N#Cc1ccc(NC(=O)C2(n3cc(C#CC4CN(c5ccc6c(c5)C(=O)N(C5CCC(=O)NC5=O)C6=O)C4)cn3)CCC2)cc1C1CC1` (centres unmarked) [Compound 40, N-(4-cyano-3-cyclopropylphenyl)-1-(4-((1-(2-(2,6-dioxopiperidin-3-yl)-1,3-dioxoisoindolin-5-yl)azetidin-3-yl)ethynyl)-1H-pyrazol-1-yl)cyclobutane-1-carboxamide]: the concentration for half-maximal inhibition (IC50) in series [2] (setting [3]) is less than 100 nM.

In the case of `CC#Cc1cc(C(F)(F)F)ccc1NC(=O)C(C)(C)n1cc(C#CC2CN(c3ccc4c(c3)C(=O)N(C3CCC(=O)NC3=O)C4=O)C2)c(C)n1` (centres unmarked) [Compound 193, 2-(4-((1-(2-(2,6-dioxopiperidin-3-yl)-1,3-dioxoisoindolin-5-yl)azetidin-3-yl)ethynyl)-3-methyl-1H-pyrazol-1-yl)-2-methyl-N-(2-(prop-1-yn-1-yl)-4-(trifluoromethyl)phenyl) propanamide], the IC50 in series [2] (setting [3]) is less than 100 nM.

On to `CC(C)(C(=O)Nc1ccc(C(F)(F)F)cc1-n1cncn1)n1cc(C#CC2CN(c3ccc4c(c3)C(=O)N(C3CCC(=O)NC3=O)C4=O)C2)cn1` (centres unmarked) [Compound 117, N-(2-(1H-1,2,4-triazol-1-yl)-4-(trifluoromethyl)phenyl)-2-(4-((1-(2-(2,6-dioxopiperidin-3-yl)-1,3-dioxoisoindolin-5-yl)azetidin-3-yl)ethynyl)-1H-pyrazol-1-yl)-2-methylpropanamide], for which the IC50 in series [2] (setting [4]) is less than 1000 nM.

With `O=C1CCC(N2C(=O)c3ccc(N4CC(C#Cc5cnn(C6(C(=O)Nc7ccc(C(F)(F)F)c(C8CC8)c7)CCC6)c5)C4)cc3C2=O)C(=O)N1` (centres unmarked) [Compound 75, N-(3-cyclopropyl-4-(trifluoromethyl)phenyl)-1-(4-((1-(2-(2,6-dioxopiperidin-3-yl)-1,3-dioxoisoindolin-5-yl)azetidin-3-yl)ethynyl)-1H-pyrazol-1-yl)cyclobutane-1-carboxamide], in series [2] (setting [3]), the concentration for half-maximal inhibition (IC50) was less than 50 nM.

Regarding `[2H]C1([2H])C([2H])([2H])C(C(=O)Nc2ccc(C(F)(F)F)cc2Cl)(n2cc(C#CC3CN(c4ccc5c(c4)C(=O)N(C4CCC(=O)NC4=O)C5=O)C3)cn2)C1([2H])[2H]` (centres unmarked) [Compound 113, N-(2-chloro-4-(trifluoromethyl)phenyl)-1-(4-((1-(2-(2,6-dioxopiperidin-3-yl)-1,3-dioxoisoindolin-5-yl)azetidin-3-yl)ethynyl)-1H-pyrazol-1-yl)cyclobutane-2,2,3,3,4,4-d6-1-carboxamide], the IC50 in series [2] (setting [3]) was less than 50 nM.
